# Test results reported in patent US20120208827A1, “BENZIMIDAZOLES AS FATTY ACID SYNTHASE INHIBITORS” (GlaxoSmithKline LLC, priority 2009, published 2012).
# Molecular target: FAS (Homo sapiens, UniProt P49327)
# Test: FAS assay (Assay #1 residual NADPH detection or Assay #2 CoA detection with thio-reactive coumarin dye)
# Type: biochemical
# Details: tested generally according to the assays described (Assay #1 or #2); in at least one experimental run; read-out: pIC50 value (inhibition of FAS) (converted)
# Description: FAS activity was measured through one of the two following assays.
# Inhibition of FAS activity can be measured based on the detection of residual NADPH substrate after the FAS assay is quenched. This assay is run as a 10 μL endpoint assay in 384-well format, where the reaction contains 20 μM malonyl-CoA, 2 μM acetyl-CoA, 30 μM NADPH and 40 nM FAS in 50 mM sodium phosphate, pH 7.0. The assay is run by sequentially dispensing 5 μl of a malonyl-CoA solution, then enzyme solution (containing the acetyl-CoA, and NADPH) into a black, low volume assay plate (Greiner 784076) pre-dispensed with […] compound solutions in DMSO. The reaction is incubated at ambient temperature for 60 minutes, then quenched with 5 μL of a developing solution composed of 90 μM resazurin, 0.3 IU/ml diaphorase in 50 mM sodium phosphate, pH 7.0. The developed reaction is read on a Molecular Devices Analyst or Acquest (or equivalent) plate reader using a 530 nm excitation wavelength filter, a 580 nm emission filter, and 561 nm dichroic filter. The test compounds are prepared in neat DMSO at a concentration of 10 mM. For inhibition curves, compounds are diluted using a three-fold serial dilution and tested at 11 concentrations (e.g. 25 μM-0.42 nM). Curves are analysed using ActivityBase and XLfit, and results are expressed as pIC50 values.
# Inhibition of FAS can also be quantified based on the detection of the CoA products with a thio-reactive coumarin dye. This assay is run as a 10 μL endpoint assay in 384-well format, where the reaction contains 20 μM malonyl-CoA, 20 μM acetyl-CoA, 40 μM NADPH and 2 nM FAS in 50 mM sodium phosphate, pH 7.0, and 0.04% Tween-20. The assay is run by adding 5 μL enzyme solution to a black, low volume assay plate (Greiner 784076) pre-dispensed with 100 nl compound solutions in DMSO. After 30 minutes, […] substrate is added, and the reaction incubated at ambient temperature for an additional 60 minutes. The reaction is then quenched with 10 μL of 6M guanidine-HCl containing 50 μM CPM (7-diethylamino-3-(4′-maleimidylphenyl)-4-methylcoumarin (CPM; thio-reactive dye), and incubated for 30 minutes. The plate is read on an Envision (PerkinElmer) or equivalent plate reader using a 380 nm excitation wavelength filter, and a 486 nm emission filter. Data fitting and compound preparations are done as described above.
# Chain of FAS (P49327 whole entry): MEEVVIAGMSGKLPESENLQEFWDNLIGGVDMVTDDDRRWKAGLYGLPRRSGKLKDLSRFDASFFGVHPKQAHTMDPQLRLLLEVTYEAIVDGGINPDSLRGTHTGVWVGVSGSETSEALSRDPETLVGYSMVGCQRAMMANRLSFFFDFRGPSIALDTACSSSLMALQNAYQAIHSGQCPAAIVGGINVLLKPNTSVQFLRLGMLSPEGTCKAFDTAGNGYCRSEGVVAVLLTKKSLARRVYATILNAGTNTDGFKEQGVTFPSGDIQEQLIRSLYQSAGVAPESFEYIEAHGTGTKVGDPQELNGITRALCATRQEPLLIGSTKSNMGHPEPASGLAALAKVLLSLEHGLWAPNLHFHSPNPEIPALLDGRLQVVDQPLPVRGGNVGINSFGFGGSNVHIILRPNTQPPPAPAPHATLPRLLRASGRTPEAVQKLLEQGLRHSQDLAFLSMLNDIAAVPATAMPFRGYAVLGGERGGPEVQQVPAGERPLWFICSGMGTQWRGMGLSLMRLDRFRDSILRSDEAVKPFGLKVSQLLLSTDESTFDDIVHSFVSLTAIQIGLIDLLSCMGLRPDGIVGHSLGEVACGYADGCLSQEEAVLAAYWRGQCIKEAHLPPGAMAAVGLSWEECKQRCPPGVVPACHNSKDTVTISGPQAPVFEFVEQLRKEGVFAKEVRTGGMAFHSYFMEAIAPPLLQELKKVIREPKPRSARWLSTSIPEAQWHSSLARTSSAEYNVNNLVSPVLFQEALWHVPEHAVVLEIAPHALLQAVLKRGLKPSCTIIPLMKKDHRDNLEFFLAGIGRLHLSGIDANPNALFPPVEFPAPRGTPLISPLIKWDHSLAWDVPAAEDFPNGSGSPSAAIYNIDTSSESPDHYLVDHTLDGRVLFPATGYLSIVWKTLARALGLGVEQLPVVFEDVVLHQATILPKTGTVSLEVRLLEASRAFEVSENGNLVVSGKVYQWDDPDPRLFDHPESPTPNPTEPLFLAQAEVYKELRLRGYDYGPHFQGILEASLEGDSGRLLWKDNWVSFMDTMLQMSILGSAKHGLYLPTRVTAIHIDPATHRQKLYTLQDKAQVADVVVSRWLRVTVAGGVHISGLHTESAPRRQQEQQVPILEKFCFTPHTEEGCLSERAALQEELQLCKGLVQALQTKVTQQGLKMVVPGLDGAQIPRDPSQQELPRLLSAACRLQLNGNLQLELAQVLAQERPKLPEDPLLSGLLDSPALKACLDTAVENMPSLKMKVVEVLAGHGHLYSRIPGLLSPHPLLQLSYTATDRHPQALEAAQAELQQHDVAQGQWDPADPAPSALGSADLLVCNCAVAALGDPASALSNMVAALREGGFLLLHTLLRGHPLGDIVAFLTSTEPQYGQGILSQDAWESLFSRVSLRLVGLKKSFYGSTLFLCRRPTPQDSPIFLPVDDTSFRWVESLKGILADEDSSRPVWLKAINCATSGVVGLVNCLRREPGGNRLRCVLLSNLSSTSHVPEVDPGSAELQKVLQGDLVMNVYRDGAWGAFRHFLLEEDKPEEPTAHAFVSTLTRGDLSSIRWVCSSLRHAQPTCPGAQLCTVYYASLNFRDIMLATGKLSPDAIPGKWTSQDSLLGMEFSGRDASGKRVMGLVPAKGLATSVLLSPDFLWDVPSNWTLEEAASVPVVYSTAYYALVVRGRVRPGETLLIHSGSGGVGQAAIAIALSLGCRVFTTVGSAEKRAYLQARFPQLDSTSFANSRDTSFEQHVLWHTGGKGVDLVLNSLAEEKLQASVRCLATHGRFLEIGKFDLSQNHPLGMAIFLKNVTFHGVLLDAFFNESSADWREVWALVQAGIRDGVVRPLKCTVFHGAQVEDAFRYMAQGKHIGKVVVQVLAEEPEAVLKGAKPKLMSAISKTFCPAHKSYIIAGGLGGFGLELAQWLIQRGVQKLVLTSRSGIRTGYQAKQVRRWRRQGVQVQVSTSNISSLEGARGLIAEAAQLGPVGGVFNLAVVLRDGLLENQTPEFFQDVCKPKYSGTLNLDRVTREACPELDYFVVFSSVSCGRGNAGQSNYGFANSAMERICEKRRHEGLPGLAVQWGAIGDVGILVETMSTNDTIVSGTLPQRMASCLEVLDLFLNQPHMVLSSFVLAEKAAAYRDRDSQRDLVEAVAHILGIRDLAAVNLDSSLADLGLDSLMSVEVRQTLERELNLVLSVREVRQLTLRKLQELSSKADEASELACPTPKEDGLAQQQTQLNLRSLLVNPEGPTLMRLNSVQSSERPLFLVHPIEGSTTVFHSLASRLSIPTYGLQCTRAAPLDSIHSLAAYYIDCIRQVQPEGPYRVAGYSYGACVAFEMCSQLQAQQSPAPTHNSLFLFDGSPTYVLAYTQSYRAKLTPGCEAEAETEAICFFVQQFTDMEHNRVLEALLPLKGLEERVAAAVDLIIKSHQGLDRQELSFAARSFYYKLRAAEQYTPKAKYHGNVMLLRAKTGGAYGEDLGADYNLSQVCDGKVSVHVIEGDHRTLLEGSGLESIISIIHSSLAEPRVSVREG
row,Structure (SMILES),IC50
1,"O=C(C1CC1)N1CC[C@@H](Cn2c(-c3ccc(-c4ccc5ncsc5c4)cc3)nc3ccccc32)C1 [Example 4, 6-[4-(1-{[(3S)-1-(Cyclopropylcarbonyl)-3-pyrrolidinyl]methyl}-1H-benzimidazol-2-yl)phenyl]-1,3-benzothiazole]",55 nM
2,"O=C(C1CC1)N1CC[C@@H](Cn2c(-c3ccc(-c4ccc5cc[nH]c5c4)cc3)nc3c(C(F)(F)F)cccc32)C1 [Example 24, 1-{[(3S)-1-(Cyclopropylcarbonyl)-3-pyrrolidinyl]methyl}-2-[4-(1H-indol-6-yl)phenyl]-4-(trifluoromethyl)-1H-benzimidazole]",49 nM
3,"O=C(C1CC1)N1CC[C@@H](Cn2c(-c3ccc(-c4ccccc4)cc3)nc3c(Br)cccc32)C1 [Example 33, 2-(4-Biphenylyl)-4-bromo-1-{[(3S)-1-(cyclopropylcarbonyl)-3-pyrrolidinyl]methyl}-1H-benzimidazole]",135 nM
4,"Cc1ccc2c(c1)nc(-c1ccc(-c3ccc4[nH]ncc4c3)cc1)n2C[C@@H]1CCN(C(=O)C2CC2)C1 [Example 49, 5-[4-(1-{[(3S)-1-(Cyclopropylcarbonyl)-3-pyrrolidinyl]methyl}-5-methyl-1H-benzimidazol-2-yl)phenyl]-1H-indazole]",26.9 nM
5,"O=C(C1CC1)N1CC[C@@H](Cn2c(-c3ccc(-c4ccc5[nH]ccc5c4)cc3)nc3cc(C(F)(F)F)ccc32)C1 [Example 62, 1-{[(3S)-1-(Cyclopropylcarbonyl)-3-pyrrolidinyl]methyl}-2-[4-(1H-indol-5-yl)phenyl]-5-(trifluoromethyl)-1H-benzimidazole]",30.9 nM
6,"COc1ccc2nc(-c3ccc(-c4ccc5cc[nH]c5c4)cc3)n(C[C@@H]3CCN(C(=O)C4CC4)C3)c2c1 [Example 66, 1-{[(3S)-1-(Cyclopropylcarbonyl)-3-pyrrolidinyl]methyl}-2-[4-(1H-indol-6-yl)phenyl]-6-(methyloxy)-1H-benzimidazole]",21.9 nM
7,"Cc1ccc2nc(-c3ccc(-c4ccc5occc5c4)cc3)n(C[C@@H]3CCN(C(=O)C4CC4)C3)c2c1 [Example 83, 2-[4-(1-Benzofuran-5-yl)phenyl]-1-{[(3S)-1-(cyclopropylcarbonyl)-3-pyrrolidinyl]methyl}-6-(methyl)-1H-benzimidazole]",50.1 nM
8,"O=C(C1CC1)N1CC[C@@H](Cn2c(-c3ccc(-c4ccc5cc[nH]c5c4)cc3)nc3ccc(C(F)(F)F)cc32)C1 [Example 88, 1-{[(3S)-1-(Cyclopropylcarbonyl)-3-pyrrolidinyl]methyl}-2-[4-(1H-indol-6-yl)phenyl]-6-(trifluoromethyl)-1H-benzimidazole]",43.7 nM
9,"CN1CCN(C(=O)c2ccc3nc(-c4ccc(-c5ccc6cc[nH]c6c5)cc4)n(C[C@@H]4CCN(C(=O)C5CC5)C4)c3c2)CC1 [Example 106, 1-{[(3S)-1-(Cyclopropylcarbonyl)-3-pyrrolidinyl]methyl}-2-[4-(1H-indol-6-yl)phenyl]-6-[(4-methyl-1-piperazinyl)carbonyl]-1H-benzimidazole]",55 nM
10,"CN1CCN(C(=O)c2ccc3nc(-c4ccc(-c5ccc6[nH]ccc6c5)cc4)n(C[C@@H]4CCN(C(=O)C5CC5)C4)c3c2)CC1 [Example 107, 1-{[(3S)-1-(Cyclopropylcarbonyl)-3-pyrrolidinyl]methyl}-2-[4-(1H-indol-5-yl)phenyl]-6-[(4-methyl-1-piperazinyl)carbonyl]-1H-benzimidazole]",10 nM
11,"O=C(C1CC1)N1CC[C@@H](Cn2c(-c3ccc(-c4ccc(F)cc4)cc3)nc3cccc(C(F)(F)F)c32)C1 [Example 117, 1-{[(3S)-1-(Cyclopropylcarbonyl)-3-pyrrolidinyl]methyl}-2-(4′-fluoro-4-biphenylyl)-7-(trifluoromethyl)-1H-benzimidazole]",1450 nM
